In publication PMC5773950 (British Journal of Pharmacology, 2018):
Like-named read-outs stand apart in the source and are kept apart here. Marks after values point to notes of the source that are not given here.

How the values were obtained:
human NET [1] = biological target: T1, human NET (Homo sapiens, UniProt P23975); assay: Transporter-mediated noradrenaline release from preloaded HEK 293 cells; type: cell-based; conditions: 100 μM, 45 min, compared with nisoxetine (negative control)
human SERT [2] = biological target: T2, human SERT (Homo sapiens, UniProt P31645); assay: Transporter-mediated 5-HT release from preloaded HEK 293 cells; type: cell-based; conditions: 100 μM, 15 min, compared with citalopram (negative control)
[3] = human, in vivo
[4] = human
[5] = human; remark: listed apart in the source
[6] = in vivo; cited from earlier work
[7] = human, in vivo; remark: listed apart in the source
5‐HT2A receptor = 5‐HT2A receptor (Homo sapiens, UniProt P28223); assay: biochemical; type: binding
human NET [8] = biological target: T1, human NET; assay: cell-based; type: cell-based
5‐HT2C receptor = biological target: T3, 5‐HT2C receptor (Homo sapiens, UniProt P28335); assay: biochemical; type: binding
T3 sequence (P28335 33-458): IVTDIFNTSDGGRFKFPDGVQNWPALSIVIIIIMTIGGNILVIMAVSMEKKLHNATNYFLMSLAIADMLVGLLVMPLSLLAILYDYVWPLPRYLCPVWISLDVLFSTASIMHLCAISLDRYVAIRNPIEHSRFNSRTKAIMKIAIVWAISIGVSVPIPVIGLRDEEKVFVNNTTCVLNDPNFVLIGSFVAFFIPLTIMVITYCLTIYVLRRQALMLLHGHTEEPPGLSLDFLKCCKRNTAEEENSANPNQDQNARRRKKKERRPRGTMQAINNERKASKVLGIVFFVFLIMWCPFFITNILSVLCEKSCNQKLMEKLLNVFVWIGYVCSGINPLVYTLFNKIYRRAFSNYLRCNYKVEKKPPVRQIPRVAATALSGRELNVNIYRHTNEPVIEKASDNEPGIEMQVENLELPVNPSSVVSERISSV

human SERT [9] = biological target: T2, human SERT; assay: cell-based
5‐HT1A receptor = biological target: T4, 5‐HT1A receptor (Homo sapiens, UniProt P08908); assay: biochemical; type: binding
T4 sequence (P08908 1-422): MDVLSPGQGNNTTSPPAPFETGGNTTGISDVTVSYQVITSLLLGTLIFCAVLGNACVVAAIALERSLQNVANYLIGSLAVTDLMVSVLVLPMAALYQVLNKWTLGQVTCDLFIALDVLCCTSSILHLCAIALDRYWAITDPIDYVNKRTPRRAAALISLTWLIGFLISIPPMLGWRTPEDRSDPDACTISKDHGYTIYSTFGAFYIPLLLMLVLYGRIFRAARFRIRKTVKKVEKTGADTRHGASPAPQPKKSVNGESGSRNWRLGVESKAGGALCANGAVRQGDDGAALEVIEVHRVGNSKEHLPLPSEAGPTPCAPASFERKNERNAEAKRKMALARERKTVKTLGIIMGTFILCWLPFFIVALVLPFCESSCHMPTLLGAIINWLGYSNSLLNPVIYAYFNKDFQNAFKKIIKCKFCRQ

human DAT = human DAT (Homo sapiens, UniProt Q01959); assay: cell-based
[10] = mouse; cited from earlier work

T1 sequence (P23975 whole entry): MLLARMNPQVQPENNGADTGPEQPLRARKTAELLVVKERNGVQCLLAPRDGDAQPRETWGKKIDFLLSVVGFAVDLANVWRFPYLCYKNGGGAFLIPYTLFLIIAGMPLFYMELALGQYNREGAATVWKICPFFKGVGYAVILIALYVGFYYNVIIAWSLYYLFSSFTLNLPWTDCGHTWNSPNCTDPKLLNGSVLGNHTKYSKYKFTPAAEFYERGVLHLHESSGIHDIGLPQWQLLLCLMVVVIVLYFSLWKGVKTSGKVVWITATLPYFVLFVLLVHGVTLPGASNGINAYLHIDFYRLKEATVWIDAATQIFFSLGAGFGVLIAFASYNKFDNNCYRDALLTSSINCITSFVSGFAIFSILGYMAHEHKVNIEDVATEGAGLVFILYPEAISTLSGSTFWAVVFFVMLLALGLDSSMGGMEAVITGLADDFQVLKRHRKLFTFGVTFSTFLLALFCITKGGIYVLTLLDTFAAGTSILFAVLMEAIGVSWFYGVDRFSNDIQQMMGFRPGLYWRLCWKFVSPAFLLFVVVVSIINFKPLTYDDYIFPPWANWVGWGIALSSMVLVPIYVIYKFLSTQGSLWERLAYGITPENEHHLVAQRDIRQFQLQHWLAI
T2 sequence (P31645 whole entry): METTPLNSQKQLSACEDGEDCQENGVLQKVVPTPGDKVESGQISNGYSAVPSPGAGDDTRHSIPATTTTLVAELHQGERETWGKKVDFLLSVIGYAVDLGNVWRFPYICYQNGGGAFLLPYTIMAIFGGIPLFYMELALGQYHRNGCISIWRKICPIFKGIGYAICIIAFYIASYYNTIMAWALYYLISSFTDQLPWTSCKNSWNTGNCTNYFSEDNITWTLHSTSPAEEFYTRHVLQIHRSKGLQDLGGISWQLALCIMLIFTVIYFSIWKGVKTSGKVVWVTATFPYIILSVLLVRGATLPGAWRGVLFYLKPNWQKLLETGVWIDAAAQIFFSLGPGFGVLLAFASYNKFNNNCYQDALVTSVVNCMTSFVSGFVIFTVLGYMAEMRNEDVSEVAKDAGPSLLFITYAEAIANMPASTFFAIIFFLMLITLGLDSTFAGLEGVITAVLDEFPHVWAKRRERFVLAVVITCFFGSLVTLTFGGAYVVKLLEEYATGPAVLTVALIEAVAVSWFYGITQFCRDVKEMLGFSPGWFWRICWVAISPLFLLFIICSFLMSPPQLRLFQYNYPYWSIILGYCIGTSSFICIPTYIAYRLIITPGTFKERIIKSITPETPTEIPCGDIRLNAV
human DAT, sequence (Q01959 whole entry): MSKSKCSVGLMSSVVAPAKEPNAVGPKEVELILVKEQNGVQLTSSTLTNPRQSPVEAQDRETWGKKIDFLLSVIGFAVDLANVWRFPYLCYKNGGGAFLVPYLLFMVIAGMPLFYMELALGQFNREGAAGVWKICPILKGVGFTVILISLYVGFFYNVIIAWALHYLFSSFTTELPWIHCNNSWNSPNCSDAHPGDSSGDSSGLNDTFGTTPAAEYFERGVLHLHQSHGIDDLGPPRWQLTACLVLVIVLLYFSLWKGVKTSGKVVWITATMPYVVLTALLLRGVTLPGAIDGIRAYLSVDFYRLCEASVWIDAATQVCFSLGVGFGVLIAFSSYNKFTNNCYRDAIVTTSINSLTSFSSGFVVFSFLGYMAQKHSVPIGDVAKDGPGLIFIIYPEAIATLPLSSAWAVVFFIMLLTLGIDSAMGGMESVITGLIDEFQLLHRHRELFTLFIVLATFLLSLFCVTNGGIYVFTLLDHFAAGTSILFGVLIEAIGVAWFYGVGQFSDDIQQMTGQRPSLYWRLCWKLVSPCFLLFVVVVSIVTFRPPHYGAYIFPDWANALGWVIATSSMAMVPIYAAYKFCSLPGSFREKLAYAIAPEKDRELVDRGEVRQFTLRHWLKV
5‐HT2A receptor, sequence (P28223 whole entry): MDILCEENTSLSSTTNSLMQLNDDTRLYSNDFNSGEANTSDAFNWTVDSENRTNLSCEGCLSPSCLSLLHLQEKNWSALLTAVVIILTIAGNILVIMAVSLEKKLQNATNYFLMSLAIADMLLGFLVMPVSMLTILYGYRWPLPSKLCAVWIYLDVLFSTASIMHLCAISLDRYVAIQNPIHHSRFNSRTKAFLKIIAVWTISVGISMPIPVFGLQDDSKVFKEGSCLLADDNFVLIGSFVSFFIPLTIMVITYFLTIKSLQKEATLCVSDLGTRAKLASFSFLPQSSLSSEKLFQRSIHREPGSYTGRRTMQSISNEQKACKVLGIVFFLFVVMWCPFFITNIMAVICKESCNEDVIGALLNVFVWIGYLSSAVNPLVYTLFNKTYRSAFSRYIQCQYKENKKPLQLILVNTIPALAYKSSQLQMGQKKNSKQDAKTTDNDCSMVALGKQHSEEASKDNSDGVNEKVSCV

Row | SMILES | Transporter-mediated noradrenaline release (human NET [1]) | Transporter-mediated 5-HT release (human SERT [2]) | Cu,plasma [3] [µM] | estimated maximal plasma concentration at maximal single dose ([3]; im) | WHO database: cases of serotonin syndrome, only suspected cause [4] | WHO database: cases of serotonin syndrome, only suspected cause or among others [4] | Medline database: number of published cases of serotonin syndrome [5] | Maximal plasma concentration after a single dose [6] | Cu,brain [7] | Ki (5‐HT2A receptor) [µM] | IC50 (human NET [8]) [µM] | fold more potent inhibitor of the NET versus SERT (human NET [8]) [fold] | Ki (5‐HT2C receptor) [µM] | IC50 (human SERT [9]) [µM] | SERT/NET ratio (95% CI) (human SERT [9]) | Ctotal,plasma [6] [µM] | Ki (5‐HT1A receptor) [µM] | IC50 (human DAT) [µM] | IC50 (human SERT [9]; SERT inhibition in vitro IC50) [µM] | fu,plasma [10]
1 | CNC(C)Cc1ccc2c(c1)OCO2 (stereo not shown) [MDMA, 3,4‐Methylenedioxymethamphetamine] | induced significantly greater 5‐HT and noradrenaline release | induced significantly greater 5‐HT and noradrenaline release | – | – | – | – | – | – | – | – | – | – | – | – | – | – | – | – | – | –
2 | CCOC(=O)C1(c2ccccc2)CCN(C)CC1 [Pethidine] | – | – | 0.3 to 2.3 | e Maximal concentration after a single dose of pethidine of 50 mg intramuscularly was 2 μM (Erstad et al., 1997). The drug label indicates threefold higher maximal single doses of 150 mg i.m. resulting in threefold higher estimated concentrations up to 6 μM. | 6 | 66 | 5 | e Maximal concentration after a single dose of pethidine of 50 mg intramuscularly was 2 μM (Erstad et al., 1997). The drug label indicates threefold higher maximal single doses of 150 mg i.m. resulting in threefold higher estimated concentrations up to 6 μM. | 0.7–5.4 ^h μM | – | – | – | – | – | – | – | – | – | – | –
3 | CC[C@@H](c1cccc(O)c1)[C@@H](C)CN(C)C [Tapentadol] | – | – | 0.1 to 1.5 | – | 42 | 115 | 1 | – | 0.2–3.5 ^l μM | 6.3 ± 0.2 | 1.3 | 2.6 | 12 ± 3.2 | 3.3 | 0.39 (0.21–0.70) | 0.1 to 1.9 | > 17 | 78 | – | –
4 | COc1ccc2c3c1O[C@H]1C(=O)CC[C@@]4(O)[C@@H](C2)N(C)CC[C@]314 [Oxycodone] | – | – | 0.2 | – | 2 | 101 | 13 | – | – | > 13 | > 100 | – | – | > 100 | – | – | > 17 | > 100 | > 100 | 0.6
